Key:
[1] = tested on: 15-LO; experiment: 15-LO product formation in A23187/AA-activated PMNL; type: cell-based, human; conditions: at 3 µM; mean ± s.e.m., n = 3; n.i. no inhibition
Protocol: (§1) Cells were washed and medium was exchanged. Freshly isolated PMNL (1 × 10^7) and stably transfected HEK-293 (1 × 10^6) cells were suspended in PBS pH 7.4 containing 1 mg/ml glucose and 1 mM CaCl2. […] A23187- and A23187/AA-treated PMNL and A23187/AA-treated HEK-293 (5-LO_wt), HEK-293 (5-LO_3W) and HEK-293 (5-LO_Arg101Asp) cells produced 135 ± 21, 636 ± 112, 300 ± 59, 133 ± 29, 55 ± 9 ng 5-LO products, respectively. PMNL synthesized 29 ± 6 ng 12-HETE and 97 ± 23 ng 15-HETE when challenged with A23187/AA. 5-LO products from monocytes were analyzed by UPLC-MS/MS.

[2] = target: T1, 12-LO (Homo sapiens, UniProt P18054); experiment: 12-LO product formation in A23187/AA-activated PMNL; type: cell-based; conditions: at 3 µM; mean ± s.e.m., n = 3; n.i. no inhibition
T1 construct: 12-HETE (12-LO product from platelets in PMNL preparations); endogenous in cells; host or cells: platelets contaminating human PMNL preparations
T1 sequence (P18054 1-663): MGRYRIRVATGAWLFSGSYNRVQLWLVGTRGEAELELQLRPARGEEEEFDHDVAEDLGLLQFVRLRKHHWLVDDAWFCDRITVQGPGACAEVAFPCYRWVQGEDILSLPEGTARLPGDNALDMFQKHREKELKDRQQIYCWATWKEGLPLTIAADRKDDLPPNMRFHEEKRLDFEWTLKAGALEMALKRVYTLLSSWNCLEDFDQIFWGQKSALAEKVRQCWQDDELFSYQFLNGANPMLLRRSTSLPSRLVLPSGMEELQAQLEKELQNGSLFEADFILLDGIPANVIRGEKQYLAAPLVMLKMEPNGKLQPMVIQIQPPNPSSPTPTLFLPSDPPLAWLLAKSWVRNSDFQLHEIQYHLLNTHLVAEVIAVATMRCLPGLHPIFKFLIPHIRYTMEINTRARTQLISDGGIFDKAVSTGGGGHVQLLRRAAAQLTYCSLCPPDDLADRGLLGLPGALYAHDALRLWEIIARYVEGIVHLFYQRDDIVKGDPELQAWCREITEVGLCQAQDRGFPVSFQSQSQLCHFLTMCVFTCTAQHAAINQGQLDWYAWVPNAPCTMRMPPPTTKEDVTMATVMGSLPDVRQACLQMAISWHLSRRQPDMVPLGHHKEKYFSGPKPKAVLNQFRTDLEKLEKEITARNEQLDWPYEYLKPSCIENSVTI
Protocol: as §1

[3] = target: T2, 5-LO (Homo sapiens, UniProt P09917); experiment: Activity of purified human recombinant 5-LO (cell-free); type: biochemical; set-up: made in house; host or cells: E. coli Bl21 (DE3)
T2 sequence (P09917 1-674): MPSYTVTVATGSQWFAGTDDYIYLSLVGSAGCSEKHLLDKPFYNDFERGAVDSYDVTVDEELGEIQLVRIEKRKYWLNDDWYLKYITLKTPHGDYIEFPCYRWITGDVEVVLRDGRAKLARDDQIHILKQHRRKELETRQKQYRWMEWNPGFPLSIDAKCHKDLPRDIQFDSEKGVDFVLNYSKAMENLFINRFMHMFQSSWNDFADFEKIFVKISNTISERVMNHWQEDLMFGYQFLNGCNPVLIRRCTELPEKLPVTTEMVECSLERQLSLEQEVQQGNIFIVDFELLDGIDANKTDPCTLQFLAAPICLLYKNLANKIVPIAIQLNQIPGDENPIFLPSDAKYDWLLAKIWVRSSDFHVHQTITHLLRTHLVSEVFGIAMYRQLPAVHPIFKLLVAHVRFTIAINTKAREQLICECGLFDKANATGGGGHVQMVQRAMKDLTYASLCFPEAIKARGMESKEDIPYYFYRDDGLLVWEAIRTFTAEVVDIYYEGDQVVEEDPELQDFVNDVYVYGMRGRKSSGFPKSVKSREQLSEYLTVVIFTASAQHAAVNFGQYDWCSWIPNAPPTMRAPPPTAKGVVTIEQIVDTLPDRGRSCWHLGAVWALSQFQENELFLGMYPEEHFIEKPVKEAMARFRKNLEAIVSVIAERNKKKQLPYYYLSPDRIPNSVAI
Protocol: E. coli Bl21 (DE3) cells were transformed with pT3–5LO plasmid to express human recombinant 5-LO, which was purified by affinity chromatography on an ATP-agarose column. In brief, E. coli was lysed in 50 mM triethanolamine/HCl pH 8.0 plus EDTA (5 mM), soybean trypsin inhibitor (60 µg/ml), phenylmethanesulphonyl fluoride (1 mM), dithiothreitol (1 mM), and lysozyme (1 mg/ml). After sonication (3 × 15 s), the homogenate was centrifuged at 10,000 × g for 15 min and the supernatant again at 40,000 × g for 70 min at 4 °C. The supernatant was applied to an ATP-agarose column (Sigma-Aldrich), and the column was washed with (i) PBS pH 7.4, 1 mM EDTA, (ii) 50 mM phosphate buffer pH 7.4, 0.5 M NaCl, 1 mM EDTA, and (iii) 50 mM phosphate buffer pH 7.4, 1 mM EDTA. 5-LO was eluted with 50 mM phosphate buffer pH 7.4, 1 mM EDTA, 20 mM ATP.
Purified 5-LO (0.5 µg) in PBS pH 7.4 containing EDTA (1 mM) and ATP (1 mM) was pre-incubated with LCMs for 10 min at 4 °C, pre-warmed for 30 s at 37 °C and 5-LO product formation was started by addition of AA (Sigma-Aldrich; 20 µM if not indicated otherwise) plus CaCl2 (2 mM). […] AA was added after incubation for 5 min on ice.

[4] = tested on: peripheral blood mononuclear cells; experiment: Cell viability of PBMC (MTT assay); type: cell-based, human; conditions: 24 h
Protocol: The formazan product was solubilized with SDS (10% in 20 mM HCl), and absorbance was measured at 570 nm using a Multiskan Spectrum microplate reader (Thermo Fisher Scientific).

[5] = target: T2, 5-LO; experiment: 5-LO product formation in activated PMNL; type: cell-based; set-up: Freshly isolated PMNL (1 × 10^7); endogenous in cells; host or cells: human PMNL freshly isolated from leukocyte concentrates; conditions: cell-based; mean ± s.e.m., n = 3; read-out: IC50, activated PMNL (5-LO)
Excerpt: Human PMNL, monocytes, PBMC, and platelets were freshly isolated from leukocyte concentrates. The protocols for experiments with human blood and blood cells were approved by the ethical commission of the Friedrich-Schiller-University Jena. […] PMNL were recovered from the pellet after hypotonic lysis of erythrocytes. Platelets were obtained from the supernatant and washed with PBS pH 5.9/0.9% NaCl (1:1). […]

[6] = cell-free, mean ± s.e.m., n = 3, read-out: IC50, human recombinant 5-LO
[7] = at 1 and 10 µM (one entry for both), n.i. no inhibition
[8] = human recombinant 5-LO, read-out: IC50 for 5-LO inhibition

## Cc1cc(O)c(C)c2c1O[C@](C)(CCC[C@H](C)CCC[C@H](C)CCCC(C)C)CC2 [1b]
[1]
  15-LO product formation/PMNL, residual activity: n.i.
[2]
  12-LO product formation/PMNL, residual activity: n.i.
[3]; [6]
  IC50: 750 ± 150 nM
[4]; [7]
  Cell viability/peripheral blood mononuclear cells, residual viability: n.i.
[5]
  IC50: 57 ± 2 µM

## CC(C)=CCC/C(C)=C/CC/C(C)=C/CC[C@]1(C)CCc2c(C)c(O)c(C)c(C)c2O1 [1e]
[1]
  15-LO product formation/PMNL, residual activity: n.i.
[2]
  12-LO product formation/PMNL, residual activity: 88.9 ± 4.9 % of control
[3]; [6]
  IC50: 330 ± 80 nM
[5]
  IC50: 277 ± 90 µM

## CC(C)=CCC/C(C)=C/CC/C(C)=C/CC[C@]1(C)CCc2c(C)c(O)cc(C)c2O1 [1f]
[1]
  15-LO product formation/PMNL, residual activity: n.i.
[2]
  12-LO product formation/PMNL, residual activity: 65.4 ± 6.1 % of control
[3]; [6]
  IC50: 190 ± 30 nM
[5]
  IC50: 95 ± 5 µM

## CC(C)=CCC/C(C)=C/CC/C(C)=C/CC[C@]1(C)CCc2cc(O)c(C)c(C)c2O1 [1g]
[1]
  15-LO product formation/PMNL, residual activity: n.i.
[2]
  12-LO product formation/PMNL, residual activity: 70.8 ± 2.3 % of control
[3]; [6]
  IC50: 200 ± 60 nM
[5]
  IC50: 132 ± 33 µM

## C/C(=C\CC/C(C)=C/CC/C(C)=C/CC[C@]1(C)CCc2c(C)c(O)c(C)c(C)c2O1)CO [2e]
[1]
  15-LO product formation/PMNL, residual activity: 88.0 ± 17.0 % of control
[2]
  12-LO product formation/PMNL, residual activity: 62.7 ± 15.2 % of control
[3]; [6]
  IC50: 110 ± 10 nM
[5]
  IC50: 0.27 ± 0.1 µM

## C/C(=C\CC/C(C)=C/CC/C(C)=C/CC[C@]1(C)CCc2c(C)c(O)cc(C)c2O1)CO [2f]
[1]
  15-LO product formation/PMNL, residual activity: 78.9 ± 14.8 % of control
[2]
  12-LO product formation/PMNL, residual activity: 57.8 ± 13.6 % of control
[3]; [6]
  IC50: 90 ± 30 nM
[3]; [8]
  IC50: < 100 nM
[5]
  IC50: 0.38 ± 0.09 µM

## C/C(=C/CC/C(C)=C/CC/C(C)=C/CC[C@]1(C)CCc2cc(O)c(C)c(C)c2O1)CO [3g]
[1]
  15-LO product formation/PMNL, residual activity: 168.8 ± 1.2 % of control
[3]; [6]
  IC50: 120 ± 30 nM
[4]; at 1 µM
  Cell viability/peripheral blood mononuclear cells, residual viability: n.i.
[4]; at 10 µM
  Cell viability/peripheral blood mononuclear cells, residual viability: 43.7 ± 16.2 % of control
[5]
  IC50: 0.14 ± 0.02 µM

## Cc1cc(O)cc2c1O[C@](C)(CCC[C@H](C)CCC[C@H](C)CCCC(C)C(=O)O)CC2 (some centres unmarked) [4d]
[1]
  15-LO product formation/PMNL, residual activity: 121.6 ± 10.9 % of control
[2]
  12-LO product formation/PMNL, residual activity: 74.5 ± 5.9 % of control
[4]; [7]
  Cell viability/peripheral blood mononuclear cells, residual viability: n.i.

## C/C(=C\CC/C(C)=C/CC[C@]1(C)CCc2c(C)c(O)c(C)c(C)c2O1)CC/C=C(\C)C(=O)O [4e]
[1]
  15-LO product formation/PMNL, residual activity: 181.5 ± 26.5 % of control
[2]
  12-LO product formation/PMNL, residual activity: 72.6 ± 13.6 % of control
[4]; [7]
  Cell viability/peripheral blood mononuclear cells, residual viability: n.i.

## C/C(=C\CC/C(C)=C/CC[C@]1(C)CCc2c(C)c(O)cc(C)c2O1)CC/C=C(\C)C(=O)O [4f]
[1]
  15-LO product formation/PMNL, residual activity: 186.1 ± 35.8 % of control
[2]
  12-LO product formation/PMNL, residual activity: 70.0 ± 14.1 % of control
[4]; [7]
  Cell viability/peripheral blood mononuclear cells, residual viability: n.i.

## C/C(=C\CC[C@]1(C)CCc2cc(O)cc(C)c2O1)CC/C=C(\C)CCCC(C)C(=O)O (some centres unmarked) [4l]
[3]
  IC50: 170 ± 40 nM

## Cc1c(C)c2c(c(C)c1O)CCC(C)(CCCC(C)C(=O)O)O2 (stereo not drawn) [5a, 3,4-dihydro-6-hydroxy-α,2,5,7,8-pentamethyl-2H-1-benzopyran-2-pentanoic acid]
[1]
  15-LO product formation/PMNL, residual activity: n.i.
[2]
  12-LO product formation/PMNL, residual activity: 56.7 ± 3.0 % of control
[3]; [8]
  IC50: 750 nM

## Cc1c(C)c2c(c(C)c1O)CCC(C)(CCC(=O)O)O2 (centres unmarked) [6a, 2,5,7,8-tetramethyl-2-(2′-carboxyethyl)-6-hydroxychroman]
[1]
  15-LO product formation/PMNL, residual activity: n.i.
[2]
  12-LO product formation/PMNL, residual activity: 87.2 ± 3.6 % of control

## Cc1c(O)cc2c(c1C)OC(C)(CCC(=O)O)CC2 (centres unmarked) [6c, 2,7,8-trimethyl-2-(2′-carboxyethyl)-6-hydroxychroman]
[1]
  15-LO product formation/PMNL, residual activity: n.i.
[2]
  12-LO product formation/PMNL, residual activity: 89.9 ± 4.2 % of control

## Cc1cc(O)cc2c1OC(C)(CCC(=O)O)CC2 (centres unmarked) [6d, 2,8-dimethyl-2-(2′-carboxyethyl)-6-hydroxychroman]
[1]
  15-LO product formation/PMNL, residual activity: n.i.
[2]
  12-LO product formation/PMNL, residual activity: n.i.

## C/C(=C\CC/C(C)=C/CC[C@]1(C)CCc2cc(O)cc(C)c2O1)CCC=C(CO)CO [compound 8]
[3]
  IC50: 150 ± 40 nM

## C/C(=C\CC/C(C)=C/CC[C@]1(C)CCc2cc(O)c(C)c(C)c2O1)CCC=C(CO)CO [compound 9]
[3]
  IC50: 110 nM

## C/C(=C\CC/C(C)=C/CC[C@]1(C)CCc2cc(Oc3c(O)cc(C)c4c3CC[C@@](C)(CC/C=C(\C)CC/C=C(\C)CCC=C(CO)CO)O4)c(C)c(C)c2O1)CCC=C(CO)CO [compound 10, (δ,γ)-bi-O-amplexichromanol]
[3]; purified human recombinant 5-LO, mean ± s.e.m., n = 3, read-out: IC50 (5-LO)
  IC50: 400 ± 110 nM

Reference: article PMC6148290, “Endogenous metabolites of vitamin E limit inflammation by targeting 5-lipoxygenase” (Nature Communications, 2018)
